# Measurements taken from patent US9393225B2, “Melanoma chemoprevention” (University of Pittsburgh—Of the Commonwealth System of …, priority 2012, dated 2016).
# Like-named read-outs stand apart in the source and are kept apart here.
# Legend:
# SK-MEL37 = details: different concentrations of SFN for 24, 48, or 72 h, FIG. 1
# SK-MEL 31 cells [1] = details: 24 hours
# Description: (§1) Apoptosis induction in SFN-treated SK-MEL 31 cells was assessed by (i) quantification of cytoplasmic histone associated DNA fragments, (ii) Western blot analysis for PARP cleavage and (iii) DAPI dye for nuclear morphology assay. For quantification of cytoplasmic histone-associated DNA fraction, SK-MEL 31 cells were seeded at 4×10^3 cells/well in 96-well plate and allowed to attach overnight. […] After 24 hours, the floating and attached cells were pelleted and lysed with lysis buffer supplied with the cell death detection ELISA kit, lysates were assayed for apoptosis according to the manual. SK-MEL 31 cells were seeded at 1×10^4 cells/well on a round glass coverslip in 12 well plates. Cells were then incubated for 24 hours with 0, 10, or 20 μM SFN, attached cells were fixed with 3% paraformaldehyde in PBS, permeabilized with 1% TRITON® X-100, stained with DAPI dye and inspected under a fluorescent microscope after stained with DAPI.
# PARP = details: 20 μM SFN, from 16 to 24 hour after treatment
# Description: as §1
# Cell lysate was cleared by centrifugation at 16000 rpm for 15 min. Lysate proteins were resolved by SDS-PAGE gel electrophoresis and transferred onto nitrocellulose membrane. The membrane was immersed into a phosphate buffered saline (PBS) solution containing 0.2% TWEEN® 20 and 5% (w/v) non-fat dry milk, and then incubated with desired primary antibody for 1 hour at room temperature. […]
# Bax and Bak = details: 20 μM SFN
# Description: (§2) Cell lysate was cleared by centrifugation at 16000 rpm for 15 min. Lysate proteins were resolved by SDS-PAGE gel electrophoresis and transferred onto nitrocellulose membrane. The membrane was immersed into a phosphate buffered saline (PBS) solution containing 0.2% TWEEN® 20 and 5% (w/v) non-fat dry milk, and then incubated with desired primary antibody for 1 hour at room temperature. After incubation with appropriate secondary antibody, the immunoreactive bands were visualized using enhanced chemiluminescence method. The conjugated horseradish peroxidase (HRP) secondary antibody was deactivated with sodium azide, then membranes were re-probed with anti-actin antibody to standardize protein loading. For cytochrome c and Smac/DIABLO, the cytosolic fractions were prepared with the PROTEOEXTRACT™ Subcellular Proteome Extraction kit according to the manufacturer's instructions and Western blot analysis were performed as described above.
# Bcl-2 = details: 20 μM SFN, all time points
# Description: as §2
# Bcl-XL = details: 20 μM SFN, evident from the 2 hour time point
# Description: as §2
# Smac and cytochrome c = details: SFN incubation; significant increases after 8 hours
# Description: as §2
# cIAP1 and XIAP = details: SFN treatment, with time increasing
# Description: as §2
# [2] = test system: procaspase-9, procaspase-8 and procaspase-3; details: 20 μM SFN, 24 hour time point
# Description: as §2
# caspase-8 = details: 20 μM SFN
# Excerpt: (§3) RPMI 1640, penicillin/streptomycin antibiotic mixture, and fetal bovine serum were from Gibco (Grand Island, N.Y.), propidium iodide and 4′,6′-diamidino-2-phenylindole-dihydrochloride (DAPI) were from Sigma (St Louis, Mo.). LIPOFECTAMINE 2000™ and G418 were purchased from Invitrogen (Carlsbad, Calif.). RNaseA was purchased from Promega (Madison, Wis.), and the reagents for electrophoresis were from Bio-Rad (Hercules, Calif.). Antibodies for Bcl-XL, Bak and cytochrome c were purchased from Santa Cruz Biotechnology (Santa Cruz, Calif.), antibodies specific for Bax, Smac/DIABLO, cleaved caspase-3 and cleaved caspase-8, cleaved caspase-9, cIAP1 and poly (ADP-ribose) polymerase (PARP) were purchased from Cell Signaling Technology (Beverly, Mass.), anti Bcl-2 antibody was purchased from Dakocytomation (Denmark), anti XIAP (X-linked inhibitor of apoptosis) antibody was purchased from BD PharMingen (San Diego, Calif.). Anti actin antibody was purchased from Oncogene Research Products (Boston, Mass.). The caspase inhibitors z-VAD fmk (general caspase inhibitor), z-IETD fmk (caspase-8 specific inhibitor) and z-LEHD fmk (caspase-9 specific inhibitor) were purchased from MP Biochemicals (Aurora, Ohio). The caspase-8 and caspase-9 colorimetric assay kits were purchased from R&D systems (Minneapolis, Minn.). Cytoplasmic histone associated DNA fragments detection ELISA kit was purchased from Roche Diagnostics GmbH (Mannheim, Germany). ProteoExtract™ Subcellular Proteome Extraction kit was purchased from Calbiochem (San Diego, Calif.).
# (§4) Caspases are aspartate-specific cysteine proteases that play critical roles in apoptosis. Activation of caspases results in cleavage and inactivation of key cellular proteins, including the DNA repair enzyme PARP.
# caspase-9 = details: 20 μM SFN, 24 hours
# Excerpt: as §3, §4
# [3] = test system: Cyclin B1, Cdk1, and Cdc25; details: SK-MEL31 cells, 20 μM SFN; FIG. 2
# Excerpt: The blots were stripped and re-probed with anti-actin antibody to normalize for differences in protein loading.
# [4] = mice, at the doses used
# Description: (§5) Female athymic mice (6-week-old) were purchased from Taconic (Germantown, N.Y.). SK-MEL 31 cells were suspended in pharmacological grade normal saline, and 0.1 ml suspension containing 5×10^6 cells was injected subcutaneously on right flank of each mouse. Mice were randomized into two groups of 10 mice per group. Experimental animals were gavaged with SFN (5.6 μmol SFN in 0.1 ml normal saline) three times per week (Monday, Wednesday and Friday) beginning two weeks before tumor implantation. Control mice received an equal volume of the vehicle. Tumor volume was determined based on measurement of the length and width of the tumor, […]. Statistical significance of difference in tumor volume was assessed by Student's t-test. Upon the termination of the experiment, the tumor tissues were harvested and processed for analysis of apoptotic bodies by immunohistochemistry method. Tumor tissues were embedded in paraffin, sectioned (6 μm), de-paraffinized and processed for determination of apoptotic bodies using APOTAG® Plus Peroxidase In Situ Apoptosis detection kit (Intergen, NY) according to the manufacturer's instructions. Brown color apoptotic bodies in tumor sections of control and SFN-treated group were counted by two pathologists independently and blindly under a microscope at 400× magnification. Four randomly selected fields on each tumor section were counted for apoptotic bodies.
# SK-MEL 31 xenografts = test system: SK-MEL 31 xenografts
# Description: as §5
# SK-MEL 31 cells [5] = details: 20 μM SFN, 24 hours, p<0.05
# STAT3 = details: administered orally to SCID mice; FIG. 3
# SK-MEL 31 cells [6] = assay: Trypan blue dye exclusion assay (cell proliferation / viability); details: for number of viable cells compared with control: 24 hour
compound,measurement,setting,value
"C[S+]([O-])CCCCN=C=S (centres unmarked) [SFN, 1-isothiocyanato-4-(methylsulfinyl)-butane]",melanoma cell growth in vitro (cell viability),SK-MEL37,inhibits melanoma cell growth in vitro
same,increase in cytoplasmic histone associated DNA fragments compared with DMSO treated control,SK-MEL 31 cells [1]; 5 μM SFN,~4.7 fold
same,increase in cytoplasmic histone associated DNA fragments compared with DMSO treated control,SK-MEL 31 cells [1]; 10 μM SFN,~11.4 fold
same,condensed nucleus ratio,"SK-MEL 31 cells [1]; SFN 10 or 20 μM, FIG. 5C",increased significantly
same,PARP cleavage,PARP,obvious increase of PARP cleavage
same,Bax and Bak protein level,Bax and Bak,no significant level changes
same,Bcl-2 protein level,Bcl-2,No marked change
same,Bcl-XL protein level,Bcl-XL,down-regulation
same,cytosolic levels of Smac and cytochrome c,Smac and cytochrome c,time-dependent increases
same,cIAP1 and XIAP level,cIAP1 and XIAP,consecutive cIAP1 and XIAP level decreases
same,"cleavage of procaspase-9, procaspase-8 and procaspase-3",[2],resulted in cleavage
same,caspase-8 activity increase compared with the control group,caspase-8; 16 hour,45%
same,caspase-8 activity increase compared with the control group,caspase-8; 24 hour,73%
same,increase in caspase-9 activity,caspase-9,148%
same,"melanoma cell Cyclin B1, Cdk1, and Cdc25",[3],inhibits
same,"side effect (weight loss, organ weight difference)",[4],No side effect was observed
same,reduction in tumor volume,"SK-MEL 31 xenografts; 16 days after tumor implantation, versus control, p<0.01",50%
same,average tumor volume,"SK-MEL 31 xenografts; 16 days after tumor implantation, gavage 5.6 μmol SFN three times per week",154.4±95.4 mm^3
same,tumor wet weight,"SK-MEL 31 xenografts; oral SFN versus control, p<0.01",significant decrease
same,count of apoptotic bodies in tumor sections versus controls (TUNEL assay),"SK-MEL 31 xenografts; oral SFN, p<0.05",~4.4 fold
same,cell cycle distribution,SK-MEL 31 cells [5],significantly increase of Sub-G0/G1 and G2M phase and decreased G0/G1 phase cell number
same,STAT3 expression in human melanoma cells transplanted into mice,STAT3,lowered STAT3 expression
same,number of viable cells compared with control,SK-MEL 31 cells [6]; 10 μM SFN,58%
same,number of viable cells compared to control,"SK-MEL 31 cells [6]; 10 μM SFN, 48 hour",27%
same,number of viable cells compared to control,"SK-MEL 31 cells [6]; 10 μM SFN, 72 hour",19%
same,number of viable cells compared with control,SK-MEL 31 cells [6]; 20 μM SFN,46%
same,number of viable cells compared to control,"SK-MEL 31 cells [6]; 20 μM SFN, 48 hour",23%
same,number of viable cells compared to control,"SK-MEL 31 cells [6]; 20 μM SFN, 72 hour",13%
same,number of viable cells compared with control,SK-MEL 31 cells [6]; 40 μM SFN,26%
same,number of viable cells compared to control,"SK-MEL 31 cells [6]; 40 μM SFN, 48 hour",10%
same,number of viable cells compared to control,"SK-MEL 31 cells [6]; 40 μM SFN, 72 hour",10%
same,melanoma cell growth in vitro (cell viability),"SK-MEL 31 cells [6]; SK-MEL31, different concentrations of SFN for 24, 48, or 72 h, FIG. 1",inhibits melanoma cell growth in vitro
